Results on five compounds are retold here after patent US8673955B2, “Imidazole derivatives as fructose-1,6-bisphosphatase inhibitors and pharmaceutical compositions containing them” (Merck Patent GmbH, priority 2005, dated 2014).

Each structure is given as a SMILES string. pIC50: −log10 of the molar value. Where two headings read alike, the source gives them in different places.

In data set [1] the target is T1, human liver recombinant Fructose-1,6-bisphosphatase (Homo sapiens, UniProt P09467).
T1 sequence (P09467 1-338): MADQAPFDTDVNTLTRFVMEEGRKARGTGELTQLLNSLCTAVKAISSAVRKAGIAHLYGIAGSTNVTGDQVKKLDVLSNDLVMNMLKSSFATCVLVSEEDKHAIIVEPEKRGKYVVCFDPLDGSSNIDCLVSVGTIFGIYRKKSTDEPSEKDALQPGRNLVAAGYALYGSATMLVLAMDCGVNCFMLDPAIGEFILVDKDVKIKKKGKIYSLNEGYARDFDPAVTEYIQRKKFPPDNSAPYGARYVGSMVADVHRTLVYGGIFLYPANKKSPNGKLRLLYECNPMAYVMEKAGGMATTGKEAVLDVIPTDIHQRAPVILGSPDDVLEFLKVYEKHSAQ
The data set is described as follows: Inhibition of human liver recombinant fructose-1,6-bisphosphatase, coupled spectrophotometric enzyme assay. It is filed as biochemical. The method, then: Enzymatic activity was measured spectrophotometrically in reactions that coupled the formation of product (fructose 6-Phosphate) to the reduction of NADP+, using phosphoglucoisomerase (PGI) and glucose 6-phosphate dehydrogenase (G6PDH) as the coupling enzymes.
Reaction mixtures (250 μl) were made up in 96-well microtitre plates, and consisted of 20 mM triethanolamine, pH 7.5, 2 mM MgCl2, 0.1 mM EDTA, 40 mM ammonium sulfate, 0.5 mM NADP, 1 U/ml G6PDH, 1 U/ml PGI and 0.167 mM substrate (Fructose 1,6-bisphosphate). The inhibitors were prepared at 10^-2 M in DMSO 100% and tested at 10^-5 M (DMSO 0.1%).
Reactions were started by the addition of the human liver recombinant Fructose-1,6-bisphosphatase and were monitored for 30 minutes at 340 nm in a Tecan Plate Reader (Room temperature).

The test system of data set [2] is primary culture of rat hepatocytes. Put plainly: Hepatic glucose production in primary culture of rat hepatocytes (DHA as gluconeogenic precursor). The following applies: 100 μM compound; 3 h incubation with DHA; control without compound = 100%. It is filed as cell-based. As for the experimental part:
Effects of the compounds previously described on hepatic glucose production in primary culture of rat hepatocytes.
Hepatocytes were isolated from normal Wistar rats in overnight fasted condition by collagenase perfusion as described by Seglen (Methods Cell Biol., (1975); 13, 29-83). Cell viability was assessed by the trypan blue exclusion test. The isolated hepatocytes were suspended in William's medium containing 10% fetal bovine serum in 6 well plates. After cell attachment (4 h) the medium was changed to remove cellular debris and replaced by serum-free minimum essential medium without glucose and the hepatocytes were cultured for 16-18 h (37° C.; 5%, CO2). At the end of the culture and after removing the medium, glucose production was assessed by incubating hepatocytes for 3 h in KREBS buffer supplemented with dihydroxyacetone (DHA) as a gluconeogenic precursor in the presence or not of the different compounds previously described. After the 3 h incubation time, the amount of glucose in the buffer was assayed by a glucose oxidase method (GOD). The total amount of cellular protein per well was measured by the method of Lowry. The results were expressed as nanomoles of glucose produced per mg cell protein. The activity of the tested compounds was expressed as % of control glucose production in presence of DHA and without compound (100%).

The mark [3] stands for this setting: stated in method text, read-out: IC50 for reference inhibitors of Fructose-1,6-bisphosphatase.
[4] abbreviates: 0.167 mM fructose 1,6-bisphosphate, pH 7.5, room temperature, read-out: Inhibition of human F-1,6-Bpase IC50.

By pIC50 is commonly meant the negative decadic logarithm of the IC50, by convention in mol/L. With `Nc1ncnc2c1ncn2[C@@H]1O[C@H](COP(=O)(O)O)[C@@H](O)[C@H]1O` [AMP, reference compound], the pIC50 in data set [1] (setting [3]) is approximately 5.00.

Consider `O=C(O)c1ccc(Cn2cc(COCc3cccc(-c4ccccc4)c3)nc2-c2ccc(Cl)s2)cc1` [Example 20, 4-[4-(Biphenyl-3-ylmethoxymethyl)-2-(5-chlorothiophen-2-yl)imidazol-1-ylmethyl]benzoic acid], for which the pIC50 in data set [1] (setting [4]) was 4.15. Besides, the “Hepatic glucose production (rat hepatocytes) % of control at 100 μM” value in data set [2] was 10 % of control.

As to `Cc1nc(-c2ccc3ccc(COCc4cn(Cc5ccc(C(=O)O)cc5)c(-c5ccc(Cl)s5)n4)cc3c2)no1` [Example 26, 4-{2-(5-Chlorothiophen-2-yl)-4-[7-(5-methyl-[1,2,4]-oxadiazol-3-yl)naphthalen-2-ylmethoxymethyl]imidazol-1-ylmethyl}benzoic acid], the pIC50 in data set [1] (setting [4]) is 4.29. Further, the “Hepatic glucose production (rat hepatocytes) % of control at 100 μM” value in data set [2] was 44 % of control.

For the compound `O=C(O)c1ccc(Cn2cc(COCc3ccc(Cl)cc3)nc2-c2ccc(Br)cc2)cc1` [Example 47, 4-[2-(4-Bromophenyl)-4-(4-chlorobenzyloxymethyl)imidazol-1-ylmethyl]benzoic acid], in data set [1] (setting [4]), the pIC50 is 4.05. For the same compound, the “Hepatic glucose production (rat hepatocytes) % of control at 100 μM” value in data set [2] is 61 % of control.

For `O=P(O)(O)OC[C@H]1O[C@@](CO)(OP(=O)(O)O)[C@@H](O)[C@@H]1O` [Fructose-2,6-Bisphosphate, reference compound], the pIC50 in data set [1] (setting [3]) is approximately 4.46.
